Data published in article PMC3856088, “Small Molecule Binding, Docking, and Characterization of the Interaction between Pth1 and Peptidyl-tRNA” (International Journal of Molecular Sciences, 2013).

Biological target: T1, E. coli Pth1 (Escherichia coli, UniProt P0A7D1)
T1 construct: gene pth; wild type, 15N-labelled, expressed in E. coli W3110, purified on His-Trap FF (tag not described), 21 kDa monomer
Assay: 1H-15N HSQC NMR titration, chemical shift perturbation mapping
Details: 20 mM Bis-Tris, 100 mM NaCl, 2 mM TCEP, pH 6.6, 25 °C; 200 uM 15N Pth1; ligand:protein up to 64:1; site opposite the substrate binding face

T1 sequence (P0A7D1 2-194): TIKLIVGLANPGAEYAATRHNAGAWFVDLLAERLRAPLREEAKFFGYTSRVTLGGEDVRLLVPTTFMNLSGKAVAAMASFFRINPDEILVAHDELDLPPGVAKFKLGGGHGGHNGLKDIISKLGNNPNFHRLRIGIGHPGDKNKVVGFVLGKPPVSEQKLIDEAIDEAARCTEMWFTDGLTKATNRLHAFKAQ

For c1cc2c(cc1CN1CCNCC1)OCO2 [piperonylpiperazine], the “1H-15N HSQC NMR titration, chemical shift perturbation mapping” value was “The binding of piperonylpiperazine to wild type E. coli Pth1 was studied by NMR spectroscopy”.
